Experimental data: ChEMBL document CHEMBL4020832, “Development of (6 R)-2-Nitro-6-[4-(trifluoromethoxy)phenoxy]-6,7-dihydro-5 H-imidazo[2,1- b][1,3]oxazine (DNDI-8219): A New Lead for Visceral Leishmaniasis” (J Med Chem, 2018)

How the values were obtained:
Format in all cases: ADME, microsome
Liver [1] = test: Metabolic stability in CD-1 mouse liver microsomes assessed as parent compound remaining at 0.5 uM after 0.5 hr
Liver [2] = test: Metabolic stability in human liver microsomes assessed as parent compound remaining at 0.5 uM after 0.5 hr
[3] = Metabolic stability in hamster liver microsomes assessed as parent compound remaining at 0.5 uM after 0.5 hr; conditions: read-out: Stability
Liver [4] = test: Metabolic stability in CD-1 mouse liver microsomes assessed as parent compound remaining at 1 uM after 1 hr
[5] = Metabolic stability in hamster liver microsomes assessed as parent compound remaining at 1 uM after 1 hr; conditions: read-out: Stability
Liver [6] = test: Metabolic stability in human liver microsomes assessed as parent compound remaining at 1 uM after 1 hr

SMILES	Stability (Liver [1]) [%]	Stability (Liver [2]) [%]	remaining at 0.5 h, 0.5 µM [3] [%]	Stability (Liver [4]) [%]	remaining at 1 h, 1 µM [5] [%]	Stability (Liver [6]) [%]
O=[N+]([O-])c1cn2c(n1)OC[C@@H](OCc1ccc(-c3ccc(OC(F)F)cc3)cn1)C2	88	92	59			
O=[N+]([O-])c1cn2c(n1)OC[C@@H](OCc1ccc(-c3ccc(OC(F)(F)F)cc3Cl)cn1)C2	100	73	75			
O=[N+]([O-])c1cn2c(n1)OC[C@@H](OCc1ccc(-c3ccc(OC(F)(F)F)cc3F)cn1)C2	84	88	69			
O=[N+]([O-])c1cn2c(n1)OC[C@@H](OCc1cccc(-c3ccc(F)cc3)n1)C2	74	96				
O=[N+]([O-])c1cn2c(n1)OC[C@@H](OCc1cccc(-c3ccc(OC(F)(F)F)cc3)n1)C2	78	75	31			
O=[N+]([O-])c1cn2c(n1)OC[C@H](OCc1ccc(-c3ccc(OC(F)(F)F)cc3Cl)cn1)C2	81	65	57	27	5.8	16
O=[N+]([O-])c1cn2c(n1)OC[C@H](OCc1ccc(-c3ccc(F)cc3)cn1)C2	77	85	37	66	10	58
O=[N+]([O-])c1cn2c(n1)OC[C@H](OCc1cccc(-c3ccc(OC(F)(F)F)cc3)n1)C2	68	68	31			
O=C(Nc1ccccc1OC(F)(F)F)N[C@@H]1COc2nc([N+](=O)[O-])cn2C1	43	74	64			
O=[N+]([O-])c1cn2c(n1)OC[C@H](Oc1ccc(-c3ccc(OC(F)(F)F)cc3)nc1)C2				35		40
O=[N+]([O-])c1cn2c(n1)OC[C@H](OCc1ccc(-c3ccc(OC(F)F)cc3)nc1)C2				56	7.9	58
O=[N+]([O-])c1cn2c(n1)OC[C@H](OCc1cccnc1-c1ccc(OC(F)(F)F)cc1)C2				44	3	35
O=[N+]([O-])c1cn2c(n1)OC[C@H](NCc1ccc(OC(F)(F)F)cc1)C2				61	7.5	
CC1(C)Oc2nc([N+](=O)[O-])cn2CC1OCc1ccc(OC(F)(F)F)cc1 (stereo not given)				72		92
O=[N+]([O-])c1cn2c(n1)OC[C@H](OCc1ncccc1-c1ccc(OC(F)(F)F)cc1)C2				0.2		8
O=[N+]([O-])c1cn2c(n1)OC[C@H](OCc1cccc(-c3ccc(F)cc3)n1)C2	68	79				
O=C(N[C@H]1COc2nc([N+](=O)[O-])cn2C1)c1cccc(OC(F)(F)F)c1					59	
O=[N+]([O-])c1cn2c(n1)OC[C@H](OCc1ccc(-c3ccc(OC(F)F)cc3)cn1)C2	86	71	45	56	11	49
O=[N+]([O-])c1cn2c(n1)OC[C@H](Oc1ccc(-c3ccc(F)cc3)nc1)C2				59		73
O=[N+]([O-])c1cn2c(n1)OC[C@H](OCc1ccc(OC(F)(F)F)cc1)C2			31	86		
O=[N+]([O-])c1cn2c(n1)OC[C@@H](OCc1csc(-c3ccc(OC(F)(F)F)cc3)n1)C2	75	78	43			
O=[N+]([O-])c1cn2c(n1)OC[C@@H](OCc1ccn(-c3ccc(OC(F)(F)F)cc3)n1)C2				67		87
O=[N+]([O-])c1cn2c(n1)OC[C@@H](OCc1ccc(OC(F)(F)F)cc1)C2 [PRETOMANID]						82
